Assay results taken from patent publication US11697772B2, “Hydrotropic composition and its uses” (KEMIRA OYJ, priority 2017, dated 2023).
Several values for one entry are separate records, joined by “and”; a condition that tells them apart may be missing. Equal entries are not always repeated. Where two headings read alike, the source gives them in different places.

Tests used:
Vibrio fischeri bacteria = experiment: Vibrio fischeri toxicity assay (Microtox, decay of bioluminescence); assay type: cell-based
Description: The toxicities were determined by exposing Vibrio fischeri marine bacteria to aqueous solutions of ILs in differing concentrations. These bacteria have successfully been used for IL toxicity assessments in a myriad of studies. A recent comparison was performed between V. fischeri and three other standardized toxicity assays utilizing aquatic organisms, namely Daphnia magna (a fresh water crustacean), Selenastrum capricomutum (a freshwater algae) and Phaeodactylum tricomutum (a seawater algae).
The toxicity measurements were performed from an ecotoxicological point of view, since ILs are potentially hazardous for the environment and particularly for organisms in aquatic environments. Therefore, V. fischeri marine bacteria were utilized in these measurements. EC50 values were determined for seven water-soluble surface-active ILs. The ILs in this study included Ch-, GND-, TMG-based ILs with straight and branched (iso and neo forms) fatty acid chains, namely isostearates, decanotes and neodecanoates. As a reference, the toxicities of the sodium salts of these carboxylates were measured in order to obtain information on the effect of the cation on the toxicities of the ILs.
The toxicities of the ILs were defined by measuring their EC50 values using V. fischeri bacteria and Microtox luminometer/thermostate apparatus (Modern Water, USA). The response measured in this assay is the decay of bioluminescence produced by the bacteria. In short, the bioluminescence was measured before the exposure on the potentially toxic compound to determine the baseline luminescence. Consequently, the bacteria were exposed on minimum four differing toxicant concentrations in 2% (w/v) NaCl solution and the decay in the luminescence was recorded. Based on the concentration-dependent decay the EC50 value was defined. The toxicities were defined at set time intervals of 5 and 15 minutes. Two independent measurements were performed for each IL as duplicates.

[1] = Differential scanning calorimetry of IL/DPPC liposome mixtures (main phase transition); assay type: physicochemical; settings: for Loss of transition (concentration range within which the phase transition was no longer detected): DPPC liposomes 0.4 mM lipid, DSC heating scans
Description: The median effective concentrations (EC50) were determined for each IL. Since the toxic effect was thought to be caused by permeation of these surface-active molecules into the cell wall of the bacteria, related interactions of ILs with biomimetic liposomes were investigated utilizing differential scanning calorimetry (DSC). In DSC experiments, dipalmitoyl phosphatidylcholine (DPPC) liposomes were used as biomimicking membranes and the change in the main phase transition temperature (Tm) of the DPPC bilayer was followed, as a function of the IL concentrations. Such measurements could potentially offer more information on how the aforementioned ILs interact with the lipid bilayers. Lastly, the critical micelle concentrations (CMC) were defined for the ILs. Based on the CMCs, it can be defined if the ILs are dissolved as singly dispersed molecules or form a dispersion of spherical micelles, or other self-assembled structures (aggregates). Therefore, it can be determined if the interactions with the bacteria or liposomes take place between IL aggregates or singly dispersed IL molecules.
The DSC experiments were performed in order to find out the IL concentrations that induce the drift in the DPPC bilayer phase transition temperature. FIG. 3 illustrates the representative endotherms, which were recorded during the second heating scans. Since the heating and the cooling scans were performed three times, the second heating endotherm was selected as the representative one. […] If the baseline variations observed during the first heating scans were not observed on the following two scans and with other concentrations of the same ILs, they were regarded as artefacts. […] Cooling scans (not shown) were recorded in order to follow the stability of the system, however, no further analysis of the cooling scans was performed. Such heating and cooling scans are standard in DSC experiments.
The DSC results are discussed in more detail in the following text for each IL carboxylate group. Instead of referring to the peak areas, which define the energy taken by the transition (cal/° C./mol), corresponding peak heights are referred to in the text, since the relative changes in the peak heights are more easily observed by visual inspection.
A stock solution of DPPC was prepared by dissolving DPPC in chloroform. Required amount of the stock solution was transferred into a glass test tube and the chloroform was evaporated under airflow in order to form a thin film of DPPC on the walls of the tube. The air-dried lipid film was held under vacuum desiccator at least for 2 h to remove the residual solvent. The lipid was dispersed into water to obtain a 4.0 mM liposome stock. The dispersion was incubated in an ultrasonication water bath for 30 min at 60° C. facilitating the formation of multilamellar liposomes.
DSC was utilized in observing the changes induced by the ILs in the organization of the lipid bilayers. Here DPPC was used because the Tm of the bilayer is well recognized—approximately 41.3° C. […] There are two additional transitions observed for DPPC aqueous solutions; the subtransition at 21° C. and the pretransition at 36° C.

[2] = Critical micelle concentration by optical pendant drop method (surface tension); assay type: physicochemical; settings: in water, superscript L logarithmic fitting, S sigmoidal fitting
Description: The surface-active molecules (surfactants) dissolve in aqueous solutions as monomers to certain concentration threshold, after which they start to build up into differing aggregates. This concentration threshold is called critical micellar concentration (CMC). However, for many surfactants the CMC is moreover a concentration range, not a specific concentration point, and the width of the range depends greatly on the structure of the compound. […] The optical pendant drop method using a contact angle meter (CAM 200, KSV Instruments, Espoo, Finland) was used for determining the CMCs. In short, a series of differing IL concentrations in water solution was investigated. A pendant-drop of a constant height was formed and the surface tension of the drop was determined based on the drop curvature by using a fitting method according to Young-Laplace equation. The surface tension was determined based on the curvature and plotted as a function of the IL concentration. The surface tension of the drop decreases as a function of increasing surfactant concentration because the singly dispersed IL molecules diffuse and orientate at the air-water interface and therefore reduce the surface tension. When the concentration reaches the CMC, the singly dispersed molecules form aggregates and no additional molecules diffuse to the surface of the drop. Therefore no change in surface tension is observed. The CMCs were determined based on the intersection point of two trend lines fitted based on the data. The surface tension was either plotted as a function of IL concentration or logarithm of the concentration and either sigmoidal or logarithmic fit, respectively, was used. The choice of method was dependent on which method provided the best fit.

[3] = DPPC liposomes, earlier DSC investigation; cited from earlier work
[4] = Vibrio fischeri, 5 min incubation, 2% (w/v) NaCl solution, read-out: EC50 5min
[5] = Vibrio fischeri, 15 min incubation, 2% (w/v) NaCl solution, read-out: EC50 15min
[6] = Aliivibrio fischeri, 5 min, Vibrio fischeri, 5 min incubation, 2% (w/v) NaCl solution, read-out: EC50 5min
[7] = Aliivibrio fischeri, 0.25 h, Vibrio fischeri, 15 min incubation, 2% (w/v) NaCl solution, read-out: EC50 15min

Compound	EC50 (Vibrio fischeri bacteria; [4]) [µM]	EC50 (Vibrio fischeri bacteria; [5]) [µM]	Loss of transition (concentration range within which the phase transition was no longer detected) [1] [mM]	CMC (critical micelle concentration) [2]	other results
choline decanoate [Ch Decanoate]	100 ± 20	100 ± 20	2.0 to 5.0		concentrations at which the ILs affected the liposomes ([1]; DPPC liposomes 0.4 mM, DSC): 0.5 to 5 mM
CC(C)CCCCCCCCCCCCCCC(=O)[O-].[Na+] [Na Isostearate, sodium isostearate, reference compound]			0.001 to 0.01	0.72 ± 0.06^L mM	EC50 (Vibrio fischeri bacteria; [6]): 110 ± 10 µM; EC50 (Vibrio fischeri bacteria; [7]): 81 ± 4 µM
Choline isostearate [Ch Isostearate]	130 ± 20	74 ± 5	0.5 to 1.0	0.50 ± 0.06^L mM	CMC (critical micelle concentration) ([2]; listed as Ch isostearate): ~0.5 mM
1,1,3,3-Tetramethylguanidinium isostearate [TMG Isostearate]	94 ± 1	62 ± 5	0.5 to 1.0	0.30 ± 0.04^S mM	
CC(C)(C)CCCCCC(=O)[O-].[Na+] [Na Neodecanoate, sodium neodecanoate, reference compound]			40 to 60	422 ± 38^L mM	EC50 (Vibrio fischeri bacteria; Aliivibrio fischeri, 5 min, read-out: EC50 5min): 500 ± 20 µM; EC50 (Vibrio fischeri bacteria; Aliivibrio fischeri, 0.25 h, read-out: EC50 15min): 473 ± 6 µM
choline neodecanoate [Ch Neodecanoate]	560 ± 60	520 ± 80		319 ± 13^L mM	highest concentration at which the transition peak was still observed ([1]; 0.4 mM DPPC, no higher concentrations measured): 60 mM
CCCCCCCCC(=O)[O-].C[N+](C)(C)CCO [Ch nonanoate]					highest concentration at which a peak for the Tm was still observed [3]: 50 mM
guanidinium neodecanoate [GND Neodecanoate]	730 ± 90	690 ± 70	15.0 to 25.0	118 ± 2^L mM	
CCCCCCCCCC(=O)[O-].[Na+] [Na decanoate, sodium decanoate, reference compound]				22±3 mM and 22 ± 3^L mM	EC50 (Vibrio fischeri bacteria; [6]): 130 ± 20 µM; EC50 (Vibrio fischeri bacteria; [7]): 130 ± 20 µM; Tm of DPPC bilayer ([1]; 50 mM IL, 0.4 mM DPPC): above 35 °C
Guanidinium isostearate [GND Isostearate]	98 ± 2	66 ± 5	0.5 to 1.0	0.31 ± 0.08^S mM	
1,1,3,3-tetramethylguanidinium neodecanoate [TMG Neodecanoate]	700 ± 70	650 ± 70		261 ± 11^L mM	
